Assay results: patent US10167517B2, “MIPOL1-ETV1 gene rearrangements” (THE REGENTS OF THE UNIVERSITY OF MICHIGAN, priority 2007, dated 2019)

Test system: LNCaP cells
Assay: Androgen regulation of gene expression by qPCR in LNCaP cells stimulated with R1881
Format: cell-based
Conditions: target gene to GAPDH ratio
Description: FIG. 6, a illustrates the tissue specificity of the 4 contiguous genes in the 14q13.3-14q21.1 region which was interrogated in the expo dataset (using Oncomine) and expression (in normalized expression units) is shown for 28 distinct tumor types and prostate cancer. FIG. 6, b and -c illustrate androgen regulation of the contiguous 14q13.3-14q21.1 genes (FIG. 6, b) and ETV1 (FIG. 6, c), as determined by qPCR in LNCaP cells with (+) or without (−) stimulation by the synthetic androgen R1881. Ratios of target gene to GAPDH (mean (n=4)+S.E.) are shown. FIG. 6, d illustrates that LNCaP and its androgen insensitive derivative, C4-2B, were profiled using a microarray (Agilent Whole Genome Microarrays), in which the top ten most differentially expressed features (LNCaP/C4-2B) are shown. FIG. 6, e-g illustrate qPCR results that show decreased expression of androgen regulated genes in C4-2B compared to LNCaP, for markers ETV1 (FIG. 6, e) and PSA (FIG. 6, f), and the 4 contiguous transcripts at 14q13.3-14q21.1 (FIG. 6, g).
Additional prostate cancer cell lines were tested to screen for ERG and ETV1 expression by quantitative PCR (qPCR), to identify additional genetic rearrangements. The following cells were tested: an immortalized benign prostate epithelial cell line (RWPE) and 8 prostate cancer cell lines (MDA-PCa 2B, LNCaP, VCaP, LAPC4, 22Rv1, NCI-H660, PC3 and DU145). Quantitative PCR (QPCR) was performed by using the oligonucleotide primers shown in Table 1 (“Fusion QPCR” and “Androgen QPCR” sections) with standard laboratory procedures and reagents (Power SYBR Green Mastermix and 7300 Real Time PCR system, Applied Biosystems, Foster City, Calif.). All oligonucleotide primers were synthesized by standard methods (performed by Integrated DNA Technologies, Coralville, Iowa). HMBS and GAPDHS, and PSA6 primers were as described previously (Vandesompele et al., Genome Biol. 3:RESEARCH0034 (2002); Specht et al., Am J. Pathol. 158: 419 (2001)). Androgen stimulation reactions were performed in quadruplicate, and all other reactions were performed in duplicate.

## C[C@]1(O)CC[C@H]2[C@@H]3CCC4=CC(=O)CCC4=C3C=C[C@@]21C [R1881]
With vs without R1881, p=0.0004
  expression of ETV1 following R1881 stimulation: 1.8 fold
With vs without R1881, p=0.008
  expression of SLC25A21 following R1881 stimulation: 0.75 fold
With vs without R1881, p=0.05
  expression of FOXA1 following R1881 stimulation: 1.3 fold
With vs without R1881, p=0.08
  expression of MIPOL1 following R1881 stimulation: 1.2 fold
With vs without R1881, p=0.10
  expression of TTC6 following R1881 stimulation: 0.70 fold
